Experimental data from patent US10104889B2 (priority 2011, dated 2018).

Tested on: Candidatus ‘Liberibacter asiaticus’
Type: in vivo
Details: 1 μM, all tested variants, monthly until sixth month, FIG. 6

In the case of `C[C@@H]1CC[C@@]2(OC1)O[C@H]1C[C@H]3[C@@H]4CC[C@H]5CC(O)CC[C@]5(C)[C@H]4OC(=O)C[C@]3(C)[C@H]1[C@@H]2C` (stereo partly drawn) [brassinosteroid analogue, (25R)-3-hydroxy-C-homo-11-oxa-5-espirostan-12-one], the “bacterial reduction at application frequencies 1, 2 and 4 times per month” value is reported as “bacterial reduction was observed”.
